Measured values published in ChEMBL document CHEMBL2203221, “Atom-based enumeration: new eribulin analogues with low susceptibility to P-glycoprotein-mediated drug efflux” (Bioorg Med Chem Lett, 2012).
pIC50: −log10 of the molar value.

Tests used:
MES-SA = assay: Resistance ratio of IC50 for human MES-SA/Dx5-Rx1 cells to IC50 for human MES-SA cells; assay type: functional
[1] = Cytotoxicity against human MES-SA/Dx5-Rx1 cells; assay type: functional, cell-based
[2] = Cytotoxicity against human MES-SA cells; assay type: functional, cell-based

SMILES	Ratio IC50 (MES-SA)	pIC50 [1]	pIC50 [2]
C=C1C[C@@H]2CC[C@@]34C[C@H]5O[C@@H]6[C@@H](O3)[C@H]3O[C@H](CC[C@@H]3O[C@H]6[C@H]5O4)CC(=O)C[C@@H]3[C@@H](OC)[C@@H](C[C@H](O)CO)O[C@H]3C[C@H]3O[C@@H](CC[C@@H]1O2)C[C@@H](C)C3=C	220	8.19	10.52
C=C1C[C@@H]2CC[C@@]34C[C@H]5O[C@@H]6[C@@H](O3)[C@H]3O[C@H](CC[C@@H]3O[C@H]6[C@H]5O4)CC(=O)C[C@@H]3[C@@H](OC)[C@@H](C[C@H](O)COC)O[C@H]3C[C@H]3O[C@@H](CC[C@@H]1O2)C[C@@H](C)C3=C	17	8.55	9.77
C=C1C[C@@H]2CC[C@@]34C[C@H]5O[C@@H]6[C@@H](O3)[C@H]3O[C@H](CC[C@@H]3O[C@H]6[C@H]5O4)CC(=O)C[C@@H]3[C@@H](OC)[C@@H](CCO)O[C@H]3C[C@H]3O[C@@H](CC[C@@H]1O2)C[C@@H](C)C3=C	33	7.00	8.52
C=C1C[C@@H]2CC[C@@]34C[C@H]5O[C@@H]6[C@@H](O3)[C@H]3O[C@H](CC[C@@H]3O[C@H]6[C@H]5O4)CC(=O)C[C@@H]3[C@@H](OC)[C@@H](CC(C)O)O[C@H]3C[C@H]3O[C@@H](CC[C@@H]1O2)C[C@@H](C)C3=C (stereo not given in full)	17	8.32	9.54
C=C1C[C@@H]2CC[C@@]34C[C@H]5O[C@@H]6[C@@H](O3)[C@H]3O[C@H](CC[C@@H]3O[C@H]6[C@H]5O4)CC(=O)C[C@@H]3[C@@H](OC)[C@@H](CC(O)CCCC)O[C@H]3C[C@H]3O[C@@H](CC[C@@H]1O2)C[C@@H](C)C3=C (stereo not given in full)	4.2	9.04	9.66
C=C1C[C@@H]2CC[C@@]34C[C@H]5O[C@@H]6[C@@H](O3)[C@H]3O[C@H](CC[C@@H]3O[C@H]6[C@H]5O4)CC(=O)C[C@@H]3[C@@H](OC)[C@@H](CC(O)CCCCCC)O[C@H]3C[C@H]3O[C@@H](CC[C@@H]1O2)C[C@@H](C)C3=C (stereo not given in full)	4.6	8.68	9.34
C=C1C[C@@H]2CC[C@@]34C[C@H]5O[C@@H]6[C@@H](O3)[C@H]3O[C@H](CC[C@@H]3O[C@H]6[C@H]5O4)CC(=O)C[C@@H]3[C@@H](OC)[C@@H](CC(O)CCCCCCCC)O[C@H]3C[C@H]3O[C@@H](CC[C@@H]1O2)C[C@@H](C)C3=C (stereo not given in full)	7.2	8.25	9.11
C=C1C[C@@H]2CC[C@@]34C[C@H]5O[C@H]6[C@@H](O3)[C@H]3O[C@H](CC[C@@H]3O[C@H]6[C@H]5O4)CC(=O)C[C@@H]3[C@@H](OC)[C@@H](C[C@H](O)CN)O[C@H]3C[C@H]3O[C@@H](CC[C@@H]1O2)C[C@@H](C)C3=C.CS(=O)(=O)O [ERIBULIN MESYLATE]	1800	5.51	8.77
CC(=O)O[C@H]1C(=O)[C@@]2(C)[C@H]([C@H](OC(=O)c3ccccc3)[C@]3(O)C[C@H](OC(=O)[C@H](O)[C@@H](NC(=O)c4ccccc4)c4ccccc4)C(C)=C1C3(C)C)[C@]1(OC(C)=O)CO[C@@H]1C[C@@H]2O [PACLITAXEL]	–	< 6.00	–
